Data published in paper PMC5907308, “21st Brazilian Diabetes Society Congress” (Diabetology & Metabolic Syndrome, 2018).

How the values were obtained:
[1] = test system: patients with type 2 diabetes; assay: Acute NEFA lowering with acipimox: 3 h OGTT and isoglycaemic IV glucose; type: in vivo, human
Description: Both tests were repeated after ACP ingestion (200 mg 2 h before and 1 h after starting glucose). C-peptide deconvolution was used to calculate IS rates; mathematical model to quantitate ß-cell function and IE. Main parameters: insulin secretion rate (ISR); glucose sensitivity (ßGS), i.e., the slope of the IS/glucose dose–response curve; glucose-induced potentiation (PGLU), a time-dependent modulation of the dose–response; incretin-induced potentiation (PINCR) calculated as the fold IS increment during OGTT compared to IV glucose.

obese patients = test system: obese patients
From the text: Alpha-linolenic acid supplementation effects on endoplasmic reticulum stress in visceral adipose tissue from morbid obese patients. 2017. Tese (Doutorado)—Faculdade de Medicina de Ribeirão Preto, Universidade de São Paulo, Ribeirão Preto, 2017. Currently, obesity is considered a worldwide epidemic. It is associated with chronic inflammation and stress activation of the endoplasmic reticulum (ERE), related to the pathogenesis of various diseases such as type 2 diabetes mellitus, cardiovascular diseases, cancer, hypertension, among others. In this context, studies are needed to find alternatives that improve the inflammatory process. […] The objective of our study was to evaluate the effects of alpha-linolenic acid (ALA) supplementation on the metabolism and stress of the endoplasmic reticulum in obese patients. A prospective, randomized, placebo-controlled, double-blind study was conducted. In total, 52 patients were randomized to supplementation with 3 g/day of ALA or placebo, 27 individuals from the omega-3/ALA group and 25 from the control group. Lipid, glycidic and inflammatory profile were evaluated before and after supplementation. Visceral adipose tissue (TAV) was collected during bariatric surgery after supplementation. The fatty acid profile incorporated in the TAV was evaluated by gas chromatography. Genes were evaluated by real-time PCR.

type 2 diabetic patient = assay: Case report: liraglutide added to insulin degludec and metformin; type: in vivo, human; details: last evaluation
Description: patient one, type 2 diabetic for 3 years, using Gliclazide 60 mg/day and Metformin 1500 mg/day. They reported asthenia and difficulty losing weight. […] To optimize patient glycemic control and weight loss, Liraglutide 1.2 mg/day was initiated. […] The insulin dose was reduced to 10 U and reassessed in 30 days for possible discontinuation of insulin therapy. GLP- 1 receptor agonists stimulate insulin secretion in a […] manner, inhibit glucagon secretion and hepatic glucose output, delay gastric emptying, induce satiety, reduce appetite, and cause weight loss. […] It is a therapeutic option with action well established in weight loss, metabolic and glycemic improvement in the DM2 patient. However, its action on HbA1C reduction was independent of weight loss, evidencing intensive glycemic control with HbA1C between 6.5 and 7.0% even with discrete or even absent weight loss.

[2] = test system: participants with type 2 diabetes and high cardiovascular risk; assay: LEADER trial, renal outcomes; type: in vivo, human
From the text: Background: The effects of liraglutide, a long-acting glucagon-like peptide-1(GLP-1) analog, on renal outcomes in type 2 diabetes are unknown. We conducted a randomized, double-blind, placebo-controlled trial comparing liraglutide vs placebo, both on a background of standard of care, in participants with type 2 diabetes and high cardiovascular risk.
Renal events were key secondary outcomes. The primary renal outcome was a composite of new onset of persistent macroalbuminuria, persistent doubling of serum creatinine, end stage renal disease (ESRD), or death due to renal disease. Risk of renal outcomes was determined using intention-to-treat in time-to-event analyses; competing risk of death was taken into account. Change of eGFR and loss of eGFR by > − 30% was also analyzed.

male Wistar rats = type: in vivo, rat
From the text: Background: Glucocorticoids (GCs) are a group of drugs with immunosuppressive and antiinflammatory action, its mechanism of action is related to the suppressing the release of proinflammatory cytokines. In addition, GCs may interfere with carbohydrate metabolism, by antagonizing various peripheral actions of insulin, and from this action, trigger changes in the biochemical profile, mainly regarding the lipid representation. The present study aimed to evaluate the dose–response influence of prednisone in the biochemical profile of rats. […] The treatment was daily with a duration of 21 days, with fasting glycemic measures being evaluated in the first (zero) and last day (21). Then the rats were anesthetized and killed by decapitation, in order to collect the whole blood for serum biochemical analysis by spectrophotometry. All data were statistically evaluated with significance of 5%.

[3] = test system: patient with schizophrenia; assay: New-onset diabetes caused by atypical antipsychotic, case report; type: in vivo, human
From the text: Case report: A patient, previously healthy, had been diagnosed with schizophrenia and started treatment with risperidone. Due to the lack of response, the medication was switched to olanzapine. After 2 years on the new treatment, however, they experienced polyuria, polydipsia and polyphagia, with a weight gain of approximately 12 kg in a period of 2 years. They were diagnosed with new-onset diabetes mellitus and hypertriglyceridemia and was referred to our center for evaluation. They were started on metformin 500 mg/day, NPH insulin 9 units before breakfast and 7 units bedtime, and bezafibrate 200 mg/day. […] LDL was not calculated due to the hypertriglyceridemia. Insulin was titrated to achieve glycemic control and autoantibodies (antiGAD, antiICA and anti-insulin) were requested, but they were negative. A letter was addressed to the psychiatry staff regarding olanzapine’s adverse events, which was exchanged to ziprasidone. […] Insulin dosing was reduced and further withdrawn 3 months after initiation of ziprasidone. Currently, 2 months thereafter, they are on good glycemic control with metformin and alogliptin.

[4] = test system: NGT subjects and T2D patients; assay: Hyperglycaemic clamp with somatostatin, without and with insulin infusion: renal glucose excretion; type: in vivo, human
Description: Then, a constant insulin infusion (1 mU min^−1 kg^−1) was started and maintained for additional 3 h (INS period) while clamping glycaemia at CT levels with the use of an ad hoc algorithm. Urines were collected separately for the two study periods for the measurement of glucose and creatinine.

[5] = test system: people with T2D and CKD stages 3-4; assay: AWARD-7 phase 3 study, 26 weeks, both arms combined with insulin lispro; type: in vivo, human
[6] = test system: subjects with type 1 diabetes; assay: onset 1, 26-week phase 3 trial, post hoc analysis by dose adjustment method; type: in vivo, human; details: before treatment
[7] = arms DU 1.5 mg and insulin glargine
[8] = subjects continuing carbohydrate counting (CC)
[9] = subjects using a simple bolus algorithm (BA)

## Cc1cnc(C(=O)O)c[n+]1[O-] [ACP, acipimox]
[1]; ACP 200 mg 2 h before and 1 h after starting glucose, n = 13, mean ± SD
  decrease of NEFA OGTT-area-under-curve (AUC): 55 ± 14%
[1]; after ACP, control 26 ± 9, p = ns
  glucose sensitivity (ßGS): 32 ± 11 pmol min^−1 m^−2 mM^−1
[1]; after ACP, control 58 ± 19
  insulin secretion rate (ISR), isoglycaemic IV glucose: 53 ± 15 nmol m^−2
[1]; after ACP, control 70 ± 23
  insulin secretion rate (ISR), OGTT: 64 ± 20 nmol m^−2
[1]; after ACP, control 291 ± 60
  oral glucose sensitivity index, OGIS: 326 ± 44 ml min^−1 m^−2
[1]; in vivo
  incretin-induced potentiation (PINCR): 1.17 ± 0.14 fold

## CC/C=C\C/C=C\C/C=C\CCCCCCCC(=O)O [ALA, alpha-linolenic acid]
Obese patients; after supplementation
  serum levels of IL-6, TNF-α and CRP: no change
Obese patients; after supplementation, P = 0.0154
  serum Leptin levels: decrease
Obese patients; after supplementation, p = 0.0211
  serum IL-4: increase
Obese patients; after supplementation, p = 0.0410
  serum IP-10: decrease
Obese patients; gas chromatography
  incorporation of ALA, EPA and DHA into visceral adipose tissue (TAV): Significant incorporation
Obese patients; real-time PCR
  gene expression of XBP1, sXBP1, EIF2-α, GADD34 and CCT4 chaperone in TAV: increase
  gene expression of leptin and ATF-6 in TAV: decrease

## CCCCCCCCCCCCCCCC(=O)N[C@@H](CCC(=O)NCCCC[C@H](NC(=O)[C@H](C)NC(=O)[C@H](C)NC(=O)[C@H](CCC(N)=O)NC(=O)CNC(=O)[C@H](CCC(=O)O)NC(=O)[C@H](CC(C)C)NC(=O)[C@H](Cc1ccc(O)cc1)NC(=O)[C@H](CO)NC(=O)[C@H](CO)NC(=O)[C@@H](NC(=O)[C@H](CC(=O)O)NC(=O)[C@H](CO)NC(=O)[C@@H](NC(=O)[C@H](Cc1ccccc1)NC(=O)[C@@H](NC(=O)CNC(=O)[C@H](CCC(=O)O)NC(=O)[C@H](C)NC(=O)[C@@H](N)Cc1c[nH]cn1)[C@@H](C)O)[C@@H](C)O)C(C)C)C(=O)N[C@@H](CCC(=O)O)C(=O)N[C@@H](Cc1ccccc1)C(=O)N[C@H](C(=O)N[C@@H](C)C(=O)N[C@@H](Cc1c[nH]c2ccccc12)C(=O)N[C@@H](CC(C)C)C(=O)N[C@H](C(=O)N[C@@H](CCCNC(=N)N)C(=O)NCC(=O)N[C@@H](CCCNC(=N)N)C(=O)NCC(=O)O)C(C)C)[C@@H](C)CC)C(=O)O [Liraglutide]
Type 2 diabetic patient
  HbA1c: 6.4%
Type 2 diabetic patient; […] of total weight
  total weight loss: 6 kg
[2]; in vivo
  albuminuria vs placebo: increased less
  eGFR vs placebo: decreased significantly less
[2]; median follow-up 3.84 years, placebo 337 of 4672
  primary renal outcome, participants: 268 of 4668
[2]; p = 0.003
  primary renal outcome, HR vs placebo: 0.787 [0.670;0.924]
[2]; p = 0.004
  new onset of persistent macroalbuminuria, HR vs placebo: 0.74 [0.61;0.91]
[2]; placebo 215 of 4672
  new onset of persistent macroalbuminuria, participants: 161 of 4668

## C[C@]12C=CC(=O)C=C1CC[C@@H]1[C@@H]2C(=O)C[C@@]2(C)[C@H]1CC[C@]2(O)C(=O)CO [PRED, prednisone]
Male Wistar rats; 1.25 mg/kg, control 68.6 ± 24.8
  alanine aminotransferase (ALT): 79.0 ± 25.1 U/L
Male Wistar rats; 5.0 mg/kg, 21 days, CONT 144.1 ± 39.6
  triglycerides: 76.0 ± 36.2 mg/dL
Male Wistar rats; 5.0 mg/kg, CONT 22.8 ± 7.9
  VLDL: 15.2 ± 7.2 mg/dL
Male Wistar rats; 5.0 mg/kg, CONT 53.0 ± 7.7
  HDL: 23.8 ± 4.2 mg/dL

## Cc1cc2c(s1)Nc1ccccc1N=C2N1CCN(C)CC1 [olanzapine]
[3]; After 2 years on olanzapine
  HDL: 65 mg/dL
  Total cholesterol: 570 mg/dL
  triglycerides: 3455 mg/dL
[3]; period of 2 years on olanzapine
  weight gain: approximately 12 kg

## INS: constant insulin infusion (1 mU min^−1 kg^−1)
[4]; INS period (insulin 1 mU min^−1 kg^−1, 3 h), NGT, CT period 36 ± 16
  exogenous glucose infusion rate (GIR): 157 ± 46 µmol kg MM^−1 min^−1
[4]; INS period, NGT, CT period 20 ± 5
  fractional glucose excretion (FEG): 24 ± 3%
[4]; INS period, NGT, CT period 690 [180]
  urinary glucose excretion (UGE), median [IQR]: 770 [320] µmol min^−1
[4]; INS period, T2D, CT period 17 ± 6
  fractional glucose excretion (FEG): 17 ± 7%
[4]; INS period, T2D, CT period 26 ± 12
  exogenous glucose infusion rate (GIR): 71 ± 47 µmol kg MM^−1 min^−1
[4]; INS period, T2D, CT period 490[280]
  urinary glucose excretion (UGE), median [IQR]: 530[310] µmol min^−1

## dulaglutide
[5]; arm DU 0.75 mg
  Nausea: 11.1%
  diarrhea: 13.7%
  vomiting: 5.8%
[5]; arm DU 0.75 mg once weekly
  hypoglycemia rate (≤ 70 mg/dL): 7.8 events/participant/year
[5]; [7]
  Nausea: 19.8%
  diarrhea: 15.6%
  vomiting: 12.0%
[5]; arms DU 1.5 mg once weekly and titrated daily insulin glargine
  hypoglycemia rate (≤ 70 mg/dL): 5.5 events/participant/year

## fast-acting insulin aspart [faster aspart]
[6]; [8]
  HbA1c at baseline: 7.6%
[6]; [9]
  HbA1c at baseline: 7.5%

## insulin aspart [IAsp]
[6]; [8]
  HbA1c at baseline: 7.6%
[6]; [9]
  HbA1c at baseline: 7.6%
